Measurements from the NIST ThermoML archive (doi:10.1021/acs.jced.7b00106).

Details: Liquid, Hot wire method

FC(F)(F)/C=C/Cl [(E)-1-chloro-3,3,3-trifluoroprop-1-ene]
Details | thermal conductivity [W/m/K]
203.56 K, 10316 kPa | 0.1156
203.65 K, 10337 kPa | 0.1151
203.67 K, 219 kPa | 0.1135
203.67 K, 10365 kPa | 0.116
203.68 K, 5190 kPa | 0.1132
203.68 K, 10370 kPa | 0.1166
203.76 K, 231 kPa | 0.113
203.76 K, 10344 kPa | 0.1159
203.77 K, 5194 kPa | 0.1133
203.77 K, 10372 kPa | 0.1156
203.91 K, 10339 kPa | 0.1163
204.02 K, 228 kPa | 0.1135
204.02 K, 5185 kPa | 0.114
204.02 K, 10301 kPa | 0.1153
204.02 K, 10366 kPa | 0.1154
204.02 K, 10378 kPa | 0.1158
204.12 K, 10382 kPa | 0.1152
204.13 K, 232 kPa | 0.1125
204.13 K, 5176 kPa | 0.1137
204.13 K, 10374 kPa | 0.1153
204.3 K, 10296 kPa | 0.1148
204.4 K, 223 kPa | 0.1124
204.4 K, 5171 kPa | 0.1142
204.4 K, 10360 kPa | 0.1158
204.41 K, 10375 kPa | 0.1154
204.43 K, 10300 kPa | 0.1153
204.53 K, 10368 kPa | 0.1152
204.54 K, 5176 kPa | 0.1138
204.54 K, 10353 kPa | 0.115
204.55 K, 227 kPa | 0.1121
204.71 K, 10305 kPa | 0.115
204.81 K, 10351 kPa | 0.1146
204.81 K, 10361 kPa | 0.1153
204.82 K, 232 kPa | 0.1125
204.82 K, 5179 kPa | 0.1141
204.88 K, 10317 kPa | 0.1155
204.97 K, 10365 kPa | 0.1148
204.98 K, 5182 kPa | 0.1135
204.98 K, 10343 kPa | 0.1151
204.99 K, 223 kPa | 0.1121
205.17 K, 10310 kPa | 0.1155
205.25 K, 10392 kPa | 0.1152
205.26 K, 10349 kPa | 0.1152
205.27 K, 5170 kPa | 0.1139
205.29 K, 230 kPa | 0.1124
205.36 K, 10304 kPa | 0.1149
205.44 K, 10383 kPa | 0.1147
205.45 K, 10380 kPa | 0.1147
205.46 K, 5164 kPa | 0.1134
205.48 K, 239 kPa | 0.1121
222.19 K, 65394 kPa | 0.1242
222.21 K, 54365 kPa | 0.1216
222.27 K, 44671 kPa | 0.1193
222.28 K, 65396 kPa | 0.1238
222.3 K, 35555 kPa | 0.1171
222.32 K, 26424 kPa | 0.1148
222.32 K, 54366 kPa | 0.1215
222.35 K, 17783 kPa | 0.1123
222.37 K, 44672 kPa | 0.1196
222.39 K, 449 kPa | 0.1078
222.39 K, 8723 kPa | 0.1103
222.4 K, 35559 kPa | 0.1171
222.42 K, 26428 kPa | 0.1148
222.45 K, 17781 kPa | 0.1124
222.49 K, 8727 kPa | 0.1099
222.5 K, 449 kPa | 0.1068
222.54 K, 65394 kPa | 0.1248
222.57 K, 54367 kPa | 0.1222
222.62 K, 44672 kPa | 0.1196
222.67 K, 35561 kPa | 0.1177
222.69 K, 54366 kPa | 0.1219
222.7 K, 26430 kPa | 0.1145
222.73 K, 17781 kPa | 0.1124
222.75 K, 44676 kPa | 0.1192
222.77 K, 8729 kPa | 0.1105
222.79 K, 453 kPa | 0.107
222.79 K, 26430 kPa | 0.1147
222.79 K, 35560 kPa | 0.1173
222.86 K, 17785 kPa | 0.112
222.91 K, 8723 kPa | 0.1098
222.91 K, 65386 kPa | 0.1248
222.92 K, 456 kPa | 0.1067
222.97 K, 54368 kPa | 0.122
223.03 K, 44680 kPa | 0.1196
223.06 K, 65383 kPa | 0.1239
223.07 K, 35560 kPa | 0.1178
223.11 K, 26433 kPa | 0.1152
223.11 K, 54368 kPa | 0.122
223.14 K, 17782 kPa | 0.1124
223.17 K, 44685 kPa | 0.1194
223.21 K, 8729 kPa | 0.1098
223.22 K, 35566 kPa | 0.1174
223.23 K, 454 kPa | 0.1071
223.26 K, 26433 kPa | 0.1147
223.3 K, 17785 kPa | 0.112
223.34 K, 65385 kPa | 0.1243
223.36 K, 8728 kPa | 0.1097
223.39 K, 453 kPa | 0.1069
223.39 K, 54369 kPa | 0.1224
223.46 K, 44687 kPa | 0.1198
223.5 K, 65379 kPa | 0.1241
223.51 K, 35560 kPa | 0.1174
223.56 K, 26434 kPa | 0.1151
223.56 K, 54369 kPa | 0.1215
223.6 K, 17788 kPa | 0.1125
223.63 K, 44686 kPa | 0.1196
223.67 K, 8730 kPa | 0.1101
223.68 K, 35563 kPa | 0.1172
223.71 K, 455 kPa | 0.1073
223.73 K, 26431 kPa | 0.1148
223.78 K, 17788 kPa | 0.1121
223.79 K, 65376 kPa | 0.1246
223.85 K, 54372 kPa | 0.122
223.86 K, 8734 kPa | 0.1093
223.89 K, 457 kPa | 0.1068
223.93 K, 44690 kPa | 0.1197
223.98 K, 35565 kPa | 0.1178
223.98 K, 65378 kPa | 0.124
224.04 K, 26437 kPa | 0.1151
224.05 K, 54371 kPa | 0.1216
224.1 K, 17783 kPa | 0.1124
224.13 K, 44694 kPa | 0.1195
224.18 K, 8734 kPa | 0.1094
224.19 K, 35567 kPa | 0.1173
224.23 K, 457 kPa | 0.107
224.25 K, 26439 kPa | 0.1146
224.31 K, 17787 kPa | 0.1119
224.39 K, 8734 kPa | 0.1092
224.45 K, 456 kPa | 0.1066
241.66 K, 13434 kPa | 0.1054
241.67 K, 7098 kPa | 0.1036
241.69 K, 586 kPa | 0.1011
241.75 K, 13448 kPa | 0.1051
241.78 K, 7107 kPa | 0.1033
241.79 K, 578 kPa | 0.1008
241.92 K, 53262 kPa | 0.1169
241.93 K, 63858 kPa | 0.1199
241.94 K, 36063 kPa | 0.1121
241.94 K, 43857 kPa | 0.1153
241.99 K, 28061 kPa | 0.1109
242.03 K, 20422 kPa | 0.1077
242.03 K, 53260 kPa | 0.1171
242.03 K, 63849 kPa | 0.1192
242.04 K, 43848 kPa | 0.114
